# Biological target: T1, HCV-NS5b (Hepatitis C virus genotype 1b, UniProt Q9WMX2)
# T1 construct: The cloned fragment was missing the C terminus 21 amino acid residues; (His)6 (C); made in house; host or cells: XL-1 cells (E. coli)
# Experiment: HCV-NS5b Enzyme Assay
# Type: biochemical
# Conditions: 1 μM test compound; incorporation of [3H]-UTP, 37° C., 2 hours
# Source text: The coding sequence of NS5b protein was cloned by PCR from pFKI389luc/NS3-3′/ET as described by Lohmann, V., et al. (1999) Science 285, 110-113 using the following primers: • […] (SEQ. ID. NO. 1) • […] (SEQ. ID. NO. 2)
# The cloned fragment was missing the C terminus 21 amino acid residues. The cloned fragment is inserted into an IPTG-inducible expression plasmid that provides an epitope tag (His)6 at the carboxy terminus of the protein.
# The recombinant enzyme was expressed in XL-1 cells and after induction of expression, the protein was purified using affinity chromatography on a nickel-NTA column. Storage condition is 10 mM Tris-HCl pH 7.5, 50 mM NaCl, 0.1 mM EDTA, 1 mM DTT, 20% glycerol at −20° C.
# The polymerase activity was assayed by measuring incorporation of radiolabeled UTP into a RNA product using a biotinylated, heteropolymeric template, which includes a portion of the HCV genome. Typically, the assay mixture […] contains 10 mM Tris-HCl (pH 7.5), 5 mM MgCl2, 0.2 mM EDTA, 10 mM KCl, 1 unit/μL RNAsin. 1 mM DTT, 10 μM each of NTP, including [^3H]-UTP, and 10 ng/μL biotinylated heteropolymeric template. 20× test compound in 2 μl's was then added as a 100% DMSO solution to achieve a final DMSO concentration of 5%. For IC50 determination a 10-point dose response was used. The compounds were serial diluted 2-fold […]. Typically for IC50's, compounds were tested starting at 50 uM or 2 μm depending on the potency. Reactions were started with addition of 10×NS5B in 4 μl's and allowed to incubate at 37° C. for 2 hours. Reactions were quenched with 8 μL of 100 mM EDTA and reaction mixtures (30 μL) were transferred to streptavidin-coated scintillation proximity microtiter plates (FlashPlates) and incubated at 4° C. overnight. Incorporation of radioactivity was determined by scintillation counting (cpm). The % Inhibition at a particular concentration was determined using the following equation, % Inhibition=100−[100*(cpm with inhibitor−bg)/(cpm with no inhibitor−bg)] where bg was the background with no enzyme.
inhibition at 1 µM [%],% inhibition @ 1 μM [%],SMILES
97.6,–,"O=C(O)c1ccc2c(C3CCCCC3)c(-c3ccc4nc(-c5ccccc5Cl)ccc4c3)n(CC(=O)N3CCOCC3)c2c1 [Compound 276, 2-[2-(2-Chloro-phenyl)-quinolin-6-yl]-3-cyclohexyl-1-(2-morpholin-4-yl-2-oxo-ethyl)-1H-indole-6-carboxylic acid]"
97.6,–,"Cc1nc(C)c(C2CCc3cc(-c4c(C5CCCCC5)c5ccc(C(=O)O)cc5n4CC(=O)N4CCOCC4)ccc3N2)s1 (stereo not shown) [Compound 323, 3-Cyclohexyl-2-[2-(2,4-dimethyl-thiazol-5-yl)-1,2,3,4-tetrahydro-quinolin-6-yl]-1-(2-morpholin-4-yl-2-oxo-ethyl)-1H-indole-6-carboxylic acid]"
94.4,–,"O=C(O)c1ccc2c(C3CCCCC3)c(-c3ccc4nc(-c5ccc(C(F)(F)F)cc5)ccc4c3)n(CC(=O)N3CCOCC3)c2c1 [Compound 263, 3-Cyclohexyl-1-(2-morpholin-4-yl-2-oxo-ethyl)-2-[2-(4-trifluoromethyl-phenyl)-quinolin-6-yl]-1H-indole-6-carboxylic acid]"
84.1,–,"Cc1nc(C)c(-c2nc3ccc(-c4c(C5CCCCC5)c5ccc(C(=O)O)cc5n4CC(=O)N4CCOCC4)cc3[nH]2)s1 [Compound 320, 3-Cyclohexyl-2-[2-(2,4-dimethyl-thiazol-5-yl)-3H-benzoimidazol-5-yl]-1-(2-morpholin-4-yl-2-oxo-ethyl)-1H-indole-6-carboxylic acid]"
100,–,"O=C(O)c1ccc2c(C3CCCCC3)c(-c3ccc(-c4ccccc4)cc3)n(CC(=O)N3CCOCC3)c2c1 [Compound 332, 2-Biphenyl-4-yl-3-cyclohexyl-1-(2-morpholin-4-yl-2-oxo-ethyl)-1H-indole-6-carboxylic acid]"
69.2,–,"COc1cccc(Cn2c(-c3ccc4nc(-c5sc(C)nc5C)ccc4c3)c(C3CCCCC3)c3ccc(C(=O)O)cc32)c1 [Compound 293, 3-Cyclohexyl-2-[2-(2,4-dimethyl-thiazol-5-yl)-quinolin-6-yl]-1-(3-methoxy-benzyl)-1H-indole-6-carboxylic acid]"
79.1,–,"Cc1nc(C)c(-c2ccc3cc(-c4c(C5CCCCC5)c5ccc(C(=O)O)cc5n4CCN4CCOCC4)ccc3n2)s1 [Compound 290, 3-Cyclohexyl-2-[2-(2,4-dimethyl-thiazol-5-yl)-quinolin-6-yl]-1-(2-morpholin-4-yl-ethyl)-1H-indole-6-carboxylic acid]"
96,–,"Cc1nc(C)c(-c2ccc3cc(-c4c(C5CCCCC5)c5ccc(C(=O)O)cc5n4CC(=O)N4CCC(N(C)C)CC4)ccc3n2)s1 [Compound 274, 3-Cyclohexyl-1-[2-(4-dimethylamino-piperidin-1-yl)-2-oxo-ethyl]-2-[2-(2,4-dimethyl-thiazol-5-yl)-quinolin-6-yl]-1H-indole-6-carboxylic acid]"
97.5,–,"COc1ccncc1-c1ccc(-c2c(C3CCCCC3)c3ccc(C(=O)O)cc3n2CC(=O)O)cc1 [Compound 308, 1-Carboxymethyl-3-cyclohexyl-2-[4-(4-methoxy-pyridin-3-yl)-phenyl]-1H-indole-6-carboxylic acid]"
96.4,–,"Cc1cc(Cn2c(-c3ccc4nc(-c5sc(C)nc5C)ccc4c3)c(C3CCCCC3)c3ccc(C(=O)O)cc32)no1 [Compound 291, 3-Cyclohexyl-2-[2-(2,4-dimethyl-thiazol-5-yl)-quinolin-6-yl]-1-(5-methyl-isoxazol-3-ylmethyl)-1H-indole-6-carboxylic acid]"
98,–,"O=C(O)c1ccc2c(C3CCCCC3)c(-c3ccc(-c4cccnc4F)cc3)n(CC(=O)N3CCOCC3)c2c1 [Compound 303, 3-Cyclohexyl-2-[4-(2-fluoro-pyridin-3-yl)-phenyl]-1-(2-morpholin-4-yl-2-oxo-ethyl)-1H-indole-6-carboxylic acid]"

# Continued, molecule first:
SMILES,inhibition at 1 µM [%],% inhibition @ 1 μM [%]
"Cc1cc(-c2ccc3cc(-c4c(C5CCCCC5)c5ccc(C(=O)O)cc5n4CC(=O)N4CCOCC4)ccc3n2)c(C)o1 [Compound 230, 3-Cyclohexyl-2-[2-(2,5-dimethyl-furan-3-yl)-quinolin-6-yl]-1-(2-morpholin-4-yl-2-oxo-ethyl)-1H-indole-6-carboxylic acid]",92.2,–
"COc1ccc(-c2ccc3cc(-c4c(C5CCCCC5)c5ccc(C(=O)O)cc5n4CC(=O)N4CCOCC4)ccc3n2)cc1OC [Compound 253, 3-Cyclohexyl-2-[2-(3,4-dimethoxy-phenyl)-quinolin-6-yl]-1-(2-morpholin-4-yl-2-oxo-ethyl)-1H-indole-6-carboxylic acid]",97.5,–
"O=C(O)c1ccc2c(C3CCCCC3)c(-c3ccc4nc(-c5ccccn5)ccc4c3)n(CC(=O)N3CCOCC3)c2c1 [Compound 217, 1-[N-morpholinocarbonylmethyl]-2-[2-(pyrid-2-yl)-quinolin-6-yl]-3-cyclohexyl-1H-indole-6-carboxylic acid]",–,98.0
"O=C(O)c1ccc2c(C3CCCCC3)c(-c3ccc4nc(-c5cnccn5)ccc4c3)n(CC(=O)N3CCOCC3)c2c1 [Compound 218, 1-[N-morpholinocarbonylmethyl]-2-[2-(pyrazin-2-yl)-quinolin-6-yl]-3-cyclohexyl-1H-indole-6-carboxylic acid]",–,96.2
"Cc1cc(-c2ccc3cc(-c4c(C5CCCCC5)c5ccc(C(=O)O)cc5n4CC(=O)N4CCOCC4)ccc3n2)c(C)s1 [Compound 258, 3-Cyclohexyl-2-[2-(2,5-dimethyl-thiophen-3-yl)-quinolin-6-yl]-1-(2-morpholin-4-yl-2-oxo-ethyl)-1H-indole-6-carboxylic acid]",97.4,–
"Cc1ccc(-c2ccc3cc(-c4c(C5CCCCC5)c5ccc(C(=O)O)cc5n4CC(=O)N4CCOCC4)ccc3n2)cc1 [Compound 252, 3-Cyclohexyl-1-(2-morpholin-4-yl-2-oxo-ethyl)-2-(2-p-tolyl-quinolin-6-yl)-1H-indole-6-carboxylic acid]",95,–
"O=C(O)c1ccc2c(C3CCCCC3)c(-c3ccc4nc(-c5ccc(-n6ccnc6)cc5)ccc4c3)n(CC(=O)N3CCOCC3)c2c1 [Compound 209, 1-[N-morpholinocarbonylmethyl]-2-[2-(4-(1H-imidazolyl)phenyl)-quinolin-6-yl]-3-cyclohexyl-1H-indole-6-carboxylic acid]",–,98.5
"NC(=O)c1cc(-c2ccc3cc(-c4c(C5CCCCC5)c5ccc(C(=O)O)cc5n4CC(=O)O)ccc3n2)ccc1O [Compound 208, 1-carboxylmethyl-2-[2-(3-Carbamoyl-4-hydroxy-phenyl)-quinolin-6-yl]-3-cyclohexyl-1H-indole-6-carboxylic acid]",84.5,–
"COc1ccc(-c2ccc(Cl)cc2)c(-c2ccc3cc(-c4c(C5CCCCC5)c5ccc(C(=O)O)cc5n4CC(=O)N(C)C)ccc3n2)c1 [Compound 206, 1-[N,N-dimethylaminocarbonyl-methyl]-2-[2-(4′-chloro-4-methoxy-biphen-2-yl)-quinolin-6-yl]-3-cyclohexyl-1H-indole-6carboxylic acid]",99,–
"Cc1nc(C)c(-c2ccc3cc(-c4c(C5CCCCC5)c5ccc(C(=O)O)cc5n4CC(=O)NCC(=O)O)ccc3n2)s1 [Compound 213, 1-[(N-carboxymethycarbamoyl)-methyl]-[2-(2,4-dimethyl-thiazol-5-yl)-quinolin-6-yl]-3-cyclohexyl-1H-indole-6-carboxylic acid]",–,92.1
"Cc1ccc(-c2ccc3cc(-c4c(C5CCCCC5)c5ccc(C(=O)O)cc5n4CC(=O)N4CCOCC4)ccc3n2)s1 [Compound 235, 3-Cyclohexyl-2-[2-(5-methyl-thiophen-2-yl)-quinolin-6-yl]-1-(2-morpholin-4-yl-2-oxo-ethyl)-1H-indole-6-carboxylic acid]",95.5,–
"O=C(O)c1ccc2c(C3CCCCC3)c(-c3ccc4nc(-c5cccc(C(F)(F)F)c5)ccc4c3)n(CC(=O)N3CCOCC3)c2c1 [Compound 247, 3-Cyclohexyl-1-(2-morpholin-4-yl-2-oxo-ethyl)-2-[2-(3-trifluoromethyl-phenyl)-quinolin-6-yl]-1H-indole-6-carboxylic acid]",98.4,–
"O=C(O)c1ccc2c(C3CCCCC3)c(-c3ccc4nc(-c5ccccc5F)ccc4c3)n(CC(=O)N3CCOCC3)c2c1 [Compound 255, 3-Cyclohexyl-2-[2-(2-fluoro-phenyl)-quinolin-6-yl]-1-(2-morpholin-4-yl-2-oxo-ethyl)-1H-indole-6-carboxylic acid]",97.4,–
"Cc1cccc(-c2ccc3cc(-c4c(C5CCCCC5)c5ccc(C(=O)O)cc5n4CC(=O)N4CCOCC4)ccc3n2)c1 [Compound 231, 3-Cyclohexyl-1-(2-morpholin-4-yl-2-oxo-ethyl)-2-(2-m-tolyl-quinolin-6-yl)-1H-indole-6-carboxylic acid]",98.7,–
